The nature of data set [1]: Test Example 1: storage stability of pemafibrate alone (HPLC related substances). In kind it is physicochemical. The procedure: In Test Examples below, measurement was performed through HPLC using an ODS column as a column and an ultraviolet spectrophotometer as a detector. 250 mg of pemafibrate was encapsulated in a polypropylene container (tight container defined in The Japanese Pharmacopoeia, 17th Edition, General Rules), and stored in a dark place at a temperature of 60° C. for 1 month. The amounts of pemafibrate-derived decomposition products (related substances) before the start of storage and after storage at 60° C. for 1 month were evaluated through the following method. The sum of related substance-derived peak areas was evaluated in terms of a ratio (%) to the pemafibrate-derived peak area using an HPLC apparatus, and the ratio was defined as the “Total amount (%) of related substances”.

Data set [2] in a line: Test Example 3: interaction study, visual examination of discoloration. Format: physicochemical. The procedure:
The states (the presence or absence of discoloration) of the samples before the start of storage and after storage at 60°G for 2 weeks were visually examined.

This note sets out measurements from patent publication US20230414578A1, “PHARMACEUTICAL COMPOSITION” (KOWA COMPANY, LTD., priority 2017, published 2023).

The structures appear in SMILES notation.

On to `CC[C@@H](Oc1cccc(CN(CCCOc2ccc(OC)cc2)c2nc3ccccc3o2)c1)C(=O)O` [Pemafibrate alone, (2R)-2-[3-([1,3-Benzoxazol-2-yl[3-(4-methoxyphenoxy)propyl]amino]methyl)phenoxy]butanoic acid], for which the “increase in the amount of related substances (in words)” value in data set [1] (after storage at 60° C. for 1 month) is given as “no substantive increase”. Moreover, in data set [1] (before start of storage, sum of related substance peak areas as ratio to pemafibrate peak area, HPLC), the “Total amount (%) of related substances, Before storage” value is less than 0.05%. The “Total amount (%) of related substances, After storage at 60° C. for 1 month” value in data set [1] (polypropylene tight container, dark place, 60° C., 1 month, HPLC peak area ratio) was less than 0.05%. The “State, Before storage” value in data set [2] (before start of storage) is given as “White”. In addition, the “State, After storage at 60° C. for 2 weeks” value in data set [2] (polypropylene tight container, dark place, 60° C., 2 weeks) is “White”.
